Earlier results on four compounds are cited in patent US20050171207A1, “Method and composition for combination treatment of neurodegenerative disorders” (Myriad Genetics, Incorporated, priority 2003, published 2005).

Where two headings read alike, the source gives them in different places.

For data set [1], the system named is mild-to-moderate AD. Conditions: rofecoxib at 25 mg daily; naproxen in the same trial.
The test system of data set [2] is Aβ42. Conditions: transgenic mouse model.
The test system of data set [3] is Aβ42. The conditions noted are these: CHO cells.
Data set [4] has as its system pain related chemo-somatosensory evoked potentials. The conditions noted are these: 50 mg and 100 mg doses, human subjects.
The subject of data set [5] is mild-to-moderate AD. The conditions noted are these: in vivo.
Data set [6] deals with Alzheimer's disease excitotoxic model. The conditions noted are these: in vivo Alzheimer's disease excitotoxic model system.

With `COc1ccc2cc([C@H](C)C(=O)O)ccc2c1` [Naproxen], in the data set with mild-to-moderate AD [1], the “efficacy for treating AD” value was “failed to show efficacy”.
As to `C[C@@H](C(=O)O)c1ccc(-c2ccccc2)c(F)c1` [R-flurbiprofen], in the data set with COX, the “inhibition of COX activity” value was “negligibly inhibits COX activity”. The Aβ42 lowering result in the data set with Aβ42 [2] and in the data set with Aβ42 [3] was “lower Aβ42” each time. In data set [4], the analgesic effect entry is given as “produced an analgesic effect”.
Take `CC12CC3CC(C)(C1)CC(N)(C3)C2` [memantine]: in the data set with mild-to-moderate AD [5], the “efficacy in treating mild-to-moderate AD” value is given as “showed efficacy”.
`CS(=O)(=O)c1ccc(C2=C(c3ccccc3)C(=O)OC2)cc1` [rofecoxib]: the “efficacy for treating AD” value with mild-to-moderate AD [1] is “failed to show efficacy”. For the same compound, the neuroprotection entry in data set [6] is recorded as “provides neuroprotection”.
